# Results published in patent publication US20260115250A1, “METHODS OF TREATING AGE-RELATED MACULAR DEGENERATION” (Character Biosciences, Inc., priority 2022, published 2026).
# Peptide text beside a SMILES is read from it.
# Biological target: LDLR (Homo sapiens, UniProt P01130)
# Assay: LDLR binding (SPR), high surfactant preparation
# Settings: not given
# Procedure: The table shown in FIG. 23 illustrates LDLR binding data (SPR), using a high surfactant preparation. Recombinant LDLR was diluted in 10 mM acetate buffer pH 4.5 and amine coupled to a CM5 chip at 1000 RU. Peptides were diluted to 5 μM in running buffer (HBS-P+, 1 mM CaCl2) and serially diluted 1:3 for 5 total concentrations. Peptides were exposed to immobilized LDLR at a rate of […] for 120 seconds. Between cycles, the chip surface was regenerated with 3 injections of 50 mM NaOH/100 mM EDTA. Multi-Cycle Kinetics was performed on a Biacore Insight Evaluation Software and binding kinetics were analyzed with a 1:1 binding model.
# Chain of LDLR (P01130 22-860): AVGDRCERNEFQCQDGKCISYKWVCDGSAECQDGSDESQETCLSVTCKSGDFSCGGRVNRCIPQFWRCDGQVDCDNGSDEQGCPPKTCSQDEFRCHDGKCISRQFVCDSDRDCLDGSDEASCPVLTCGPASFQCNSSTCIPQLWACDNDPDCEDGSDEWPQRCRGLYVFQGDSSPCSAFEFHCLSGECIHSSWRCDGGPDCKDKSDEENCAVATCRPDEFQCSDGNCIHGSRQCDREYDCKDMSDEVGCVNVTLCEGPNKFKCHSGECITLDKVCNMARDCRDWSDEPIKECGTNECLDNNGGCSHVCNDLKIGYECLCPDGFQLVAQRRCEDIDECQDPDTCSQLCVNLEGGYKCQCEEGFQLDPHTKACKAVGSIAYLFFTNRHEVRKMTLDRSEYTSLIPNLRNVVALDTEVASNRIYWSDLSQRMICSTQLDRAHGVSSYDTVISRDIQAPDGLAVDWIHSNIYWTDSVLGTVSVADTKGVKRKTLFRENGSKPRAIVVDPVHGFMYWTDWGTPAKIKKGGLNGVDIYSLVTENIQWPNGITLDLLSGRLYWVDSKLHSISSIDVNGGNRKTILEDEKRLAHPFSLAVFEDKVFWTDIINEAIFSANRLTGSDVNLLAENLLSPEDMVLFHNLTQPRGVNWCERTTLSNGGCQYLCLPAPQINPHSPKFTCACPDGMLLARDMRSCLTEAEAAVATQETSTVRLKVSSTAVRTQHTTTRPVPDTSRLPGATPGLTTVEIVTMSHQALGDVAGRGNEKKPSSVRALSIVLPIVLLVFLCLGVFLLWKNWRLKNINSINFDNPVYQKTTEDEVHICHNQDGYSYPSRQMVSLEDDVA
row,Compound,Kd
1,CC(C)C[C@H](NC(=O)[C@H](CCCNC(=N)N)NC(=O)[C@H](CC(=O)O)NC(=O)[C@H](CCC(N)=O)NC(=O)[C@H](CC(C)C)NC(=O)[C@H](CCCCN)NC(=O)[C@H](CC(=O)O)NC(=O)CNC(=O)[C@H](CC(=O)O)NC(=O)[C@H](CCCNC(=N)N)NC(=O)[C@H](CC(C)C)NC(=O)[C@H](CC(C)C)NC(=O)[C@H](CCCNC(=N)N)NC(=O)[C@H](CCCNC(=N)N)NC(=O)[C@H](CCCNC(=N)N)NC(=O)[C@H](CC(C)C)NC(=O)[C@H](CCCNC(=N)N)NC(=O)[C@H](CCCNC(=N)N)NC(=O)[C@H](CC(C)C)NC(=O)[C@@H](N)Cc1c[nH]cn1)C(=O)N[C@@H](C)C(=O)N[C@@H](CCC(=O)O)C(=O)N[C@@H](Cc1ccc(O)cc1)C(=O)N[C@@H](CCC(N)=O)C(=O)N[C@@H](C)C(=O)N[C@@H](CCCNC(=N)N)C(=O)N[C@@H](C)C(=O)N[C@@H](CCCCN)C(=O)N[C@@H](CCC(=O)O)C(=O)N[C@@H](C)C(=O)N[C@@H](Cc1ccccc1)C(=O)N[C@@H](CC(=O)O)C(=O)N[C@@H](CCCNC(=N)N)C(=O)O [T-041] (H-HLRRLRRRLLRDGDKLQDRLAEYQARAKEAFDR-OH),< 10 µM

# Same assay, conditions: high surfactant preparation (HBS-P+), 1:1 binding model; read-out: binding KD to LDLR
row,Kd,Compound
1,< 10 µM,CC(C)C[C@H](NC(=O)[C@H](CCCNC(=N)N)NC(=O)[C@H](CC(=O)O)NC(=O)[C@H](CCC(N)=O)NC(=O)[C@H](CC(C)C)NC(=O)[C@H](CCCCN)NC(=O)[C@H](CC(=O)O)NC(=O)CNC(=O)[C@H](CC(=O)O)NC(=O)[C@H](CCCNC(=N)N)NC(=O)[C@H](CC(C)C)NC(=O)[C@H](CC(C)C)NC(=O)[C@H](CCCNC(=N)N)NC(=O)[C@H](CCCCN)NC(=O)[C@H](CCCNC(=N)N)NC(=O)[C@H](CC(C)C)NC(=O)[C@H](CCCCN)NC(=O)[C@H](CCCNC(=N)N)NC(=O)[C@H](CC(C)C)NC(=O)[C@@H](N)Cc1c[nH]cn1)C(=O)N[C@@H](C)C(=O)N[C@@H](CCC(=O)O)C(=O)N[C@@H](Cc1ccc(O)cc1)C(=O)N[C@@H](CCC(N)=O)C(=O)N[C@@H](C)C(=O)N[C@@H](CCCNC(=N)N)C(=O)N[C@@H](C)C(=O)N[C@@H](CCCCN)C(=O)N[C@@H](CCC(=O)O)C(=O)N[C@@H](C)C(=O)N[C@@H](Cc1ccccc1)C(=O)N[C@@H](CC(=O)O)C(=O)N[C@@H](CCCNC(=N)N)C(=O)O [T-040] (H-HLRKLRKRLLRDGDKLQDRLAEYQARAKEAFDR-OH)
2,< 10 µM,CC(C)C[C@H](NC(=O)[C@H](CCCNC(=N)N)NC(=O)[C@H](CCCCN)NC(=O)[C@H](CCC(N)=O)NC(=O)[C@H](CC(C)C)NC(=O)[C@H](CC(=O)O)NC(=O)[C@H](CC(=O)O)NC(=O)[C@H](C)NC(=O)[C@H](CC(=O)O)NC(=O)[C@H](CCCNC(=N)N)NC(=O)[C@H](CC(C)C)NC(=O)[C@H](CC(C)C)NC(=O)[C@H](CCCNC(=N)N)NC(=O)[C@H](CCCCN)NC(=O)[C@H](CCCNC(=N)N)NC(=O)[C@H](CC(C)C)NC(=O)[C@H](CCCCN)NC(=O)[C@H](CCCNC(=N)N)NC(=O)[C@H](CC(C)C)NC(=O)[C@H](Cc1c[nH]cn1)NC(=O)[C@H](CO)NC(=O)[C@H](C)NC(=O)[C@@H](N)CC(C)C)C(=O)N[C@@H](C)C(=O)N[C@H](C(=O)N[C@@H](Cc1ccc(O)cc1)C(=O)N[C@@H](CCC(N)=O)C(=O)N[C@@H](C)C(=O)NCC(=O)N[C@@H](C)C(=O)N[C@@H](CCCNC(=N)N)C(=O)N[C@@H](CCC(=O)O)C(=O)NCC(=O)N[C@@H](C)C(=O)N[C@@H](CCC(=O)O)C(=O)N[C@@H](CCCNC(=N)N)C(=O)O)C(C)C [T-046]
3,< 10 µM,CC(C)C[C@H](NC(=O)[C@H](CCCNC(=N)N)NC(=O)[C@H](CCCCN)NC(=O)[C@H](CCC(N)=O)NC(=O)[C@H](CC(C)C)NC(=O)[C@H](CCCCN)NC(=O)[C@H](CC(=O)O)NC(=O)CNC(=O)[C@H](CC(=O)O)NC(=O)[C@H](CCCNC(=N)N)NC(=O)[C@H](CC(C)C)NC(=O)[C@H](CC(C)C)NC(=O)[C@H](CCCNC(=N)N)NC(=O)[C@H](CCCCN)NC(=O)[C@H](CCCNC(=N)N)NC(=O)[C@H](CC(C)C)NC(=O)[C@H](CCCCN)NC(=O)[C@H](CCCNC(=N)N)NC(=O)[C@H](CC(C)C)NC(=O)[C@@H](N)Cc1c[nH]cn1)C(=O)N[C@@H](C)C(=O)N[C@@H](CCC(=O)O)C(=O)N[C@@H](Cc1ccc(O)cc1)C(=O)N[C@@H](CCC(N)=O)C(=O)N[C@@H](C)C(=O)N[C@@H](CCCNC(=N)N)C(=O)N[C@@H](C)C(=O)N[C@@H](CCCCN)C(=O)N[C@@H](CCC(=O)O)C(=O)N[C@@H](C)C(=O)N[C@@H](Cc1ccccc1)C(=O)N[C@@H](CC(=O)O)C(=O)N[C@@H](CCCNC(=N)N)C(=O)O [T-052] (H-HLRKLRKRLLRDGDKLQKRLAEYQARAKEAFDR-OH)
4,< 10 µM,CC(C)C[C@H](NC(=O)[C@H](CCCNC(=N)N)NC(=O)[C@H](CC(=O)O)NC(=O)[C@H](CCC(N)=O)NC(=O)[C@H](CC(C)C)NC(=O)[C@H](CCCCN)NC(=O)[C@H](CC(=O)O)NC(=O)CNC(=O)[C@H](CC(=O)O)NC(=O)[C@H](CCCNC(=N)N)NC(=O)[C@H](CC(C)C)NC(=O)[C@H](CC(C)C)NC(=O)[C@H](CCCNC(=N)N)NC(=O)[C@H](CCCCN)NC(=O)[C@H](CCCNC(=N)N)NC(=O)[C@H](CC(C)C)NC(=O)[C@H](CCCCN)NC(=O)[C@H](CCCNC(=N)N)NC(=O)[C@H](CC(C)C)NC(=O)[C@@H](N)Cc1c[nH]cn1)C(=O)N[C@@H](C)C(=O)N[C@@H](CCC(=O)O)C(=O)N[C@@H](Cc1ccc(O)cc1)C(=O)N[C@@H](CCC(N)=O)C(=O)N[C@@H](C)C(=O)N[C@@H](CCCNC(=N)N)C(=O)N[C@@H](C)C(=O)N[C@@H](CCCNC(=N)N)C(=O)N[C@@H](CCC(=O)O)C(=O)N[C@@H](C)C(=O)N[C@@H](Cc1ccccc1)C(=O)N[C@@H](CC(=O)O)C(=O)N[C@@H](CCCNC(=N)N)C(=O)O [T-055] (H-HLRKLRKRLLRDGDKLQDRLAEYQARAREAFDR-OH)
5,< 10 µM,CC(C)C[C@H](NC(=O)[C@H](CCCNC(=N)N)NC(=O)[C@H](CC(=O)O)NC(=O)[C@H](CCC(N)=O)NC(=O)[C@H](CC(C)C)NC(=O)[C@H](CCCCN)NC(=O)[C@H](CC(=O)O)NC(=O)CNC(=O)[C@H](CC(=O)O)NC(=O)[C@H](CCCNC(=N)N)NC(=O)[C@H](Cc1ccccc1)NC(=O)[C@H](CC(C)C)NC(=O)[C@H](CCCNC(=N)N)NC(=O)[C@H](CCCCN)NC(=O)[C@@H](NC(=O)[C@H](CC(C)C)NC(=O)[C@H](CCCCN)NC(=O)[C@H](CCCNC(=N)N)NC(=O)[C@H](CC(C)C)NC(=O)[C@@H](N)Cc1c[nH]cn1)C(C)C)C(=O)N[C@@H](C)C(=O)N[C@@H](CCC(=O)O)C(=O)N[C@@H](Cc1ccc(O)cc1)C(=O)N[C@@H](CCC(N)=O)C(=O)N[C@@H](C)C(=O)N[C@@H](CCCNC(=N)N)C(=O)N[C@@H](C)C(=O)N[C@@H](CCCCN)C(=O)N[C@@H](CCC(=O)O)C(=O)N[C@@H](C)C(=O)N[C@@H](Cc1ccccc1)C(=O)N[C@@H](CC(=O)O)C(=O)N[C@@H](CCCNC(=N)N)C(=O)O [T-059] (H-HLRKLVKRLFRDGDKLQDRLAEYQARAKEAFDR-OH)
6,< 10 µM,CC(C)C[C@H](NC(=O)[C@H](CCCNC(=N)N)NC(=O)[C@H](CCCCN)NC(=O)[C@H](CCC(N)=O)NC(=O)[C@H](CC(C)C)NC(=O)[C@H](CC(=O)O)NC(=O)[C@H](CC(=O)O)NC(=O)[C@H](C)NC(=O)[C@H](CC(=O)O)NC(=O)[C@H](CCCNC(=N)N)NC(=O)[C@H](CC(C)C)NC(=O)[C@H](CC(C)C)NC(=O)[C@H](CCCNC(=N)N)NC(=O)[C@H](CCCCN)NC(=O)[C@H](CCCNC(=N)N)NC(=O)[C@H](CC(C)C)NC(=O)[C@H](CCCCN)NC(=O)[C@H](CCCNC(=N)N)NC(=O)[C@H](CC(C)C)NC(=O)[C@@H](N)Cc1c[nH]cn1)C(=O)N[C@@H](C)C(=O)N[C@@H](CCC(=O)O)C(=O)N[C@@H](Cc1ccc(O)cc1)C(=O)N[C@@H](CCC(N)=O)C(=O)N[C@@H](C)C(=O)N[C@@H](CCCNC(=N)N)C(=O)N[C@@H](C)C(=O)N[C@@H](CCCCN)C(=O)N[C@@H](CCC(=O)O)C(=O)N[C@@H](C)C(=O)N[C@@H](Cc1ccccc1)C(=O)N[C@@H](CC(=O)O)C(=O)N[C@@H](CCCNC(=N)N)C(=O)O [T-064] (H-HLRKLRKRLLRDADDLQKRLAEYQARAKEAFDR-OH)

# System: not listed separately
# Assay: DMPC solubility assay, 0.5 mM DMPC (turbidity reduction)
# Type: biochemical
# Settings: FIGS. 2A-2D and 3A-3C
# Procedure: In this example, peptide stocks were diluted to 200 μM in H2O (a 2× solution) and 50 μL of peptide solution was transferred in triplicate into 96-well plates. A one mM solution of 1,2-dimyristoyl-sn-glycero-3-phosphocholine (DMPC) in H2O was prepared, and using a multichannel pipet, 50 μL DMPC solution was rapidly added to the plate. Peptide and lipid solutions were incubated at room temperature for 15 minutes with a final concentration of 100 μM peptides and 0.5 mM DMPC. After 15 minutes, absorbance was read on a plate reader at 405 nm. […] Data are presented as mean+SD over two runs.
# In these experiments, DMPC solubility titration curves were generated. Peptide stocks were diluted to 200 μM in H2O (a 2× solution) and serially diluted in H2O over 4 concentrations, then 50 μL of peptide solutions were distributed in triplicate into 96-well plates. A 1 mM solution of 1,2-dimyristoyl-sn-glycero-3-phosphocholine (DMPC) in H2O was prepared, and using a multichannel pipet, 50 μL DMPC solution was rapidly added to the plate. Peptide and lipid solutions were incubated at room temperature for 15 minutes with final concentrations of 3.16-100 μM peptides and 0.5 mM DMPC. After 15 minutes, absorbance was read on a plate reader at 405 nm. […] Data are presented as mean+SD over two runs. Non-linear regression was used to calculate EC50 values.
row,Compound,DMPC solubilizing activity
1,T-019: therapeutic peptide (NMDEINKRLHAYEEGVKKAADE),significant activity
2,T-020: therapeutic peptide (DGDKLCDRLAEYCARAKEAFDR),did not have significant solubilizing activity
3,T-024: therapeutic peptide (FEHWISGIYSECKHLIQE),significant activity
4,T-026: therapeutic peptide (GFGDWIDSIEAFSRSLHS),significant activity
5,T-099: therapeutic peptide (RRMKDYLKKFQETLKREFRDWE),did not have significant solubilizing activity
